According to paper PMC11322497 (Frontiers in Pharmacology, 2024):

System: high fat diet (HFD) rabbit model of metabolic-associated steatohepatitis (MASH)
Assay: HFD rabbit study, acute 5-day treatment: liver markers mRNA expression by RT-PCR
Format: in vivo, New Zealand White rabbits
Settings: 30 mg/kg p.o. 5 days, week 12, mean ± SD, n = 3
Description: After 1 week of standard diet, animals (n = 12) were randomly assigned to the following groups (Table 1A): • Control rabbits continued to receive a regular diet (RD) for 12 weeks and were treated for 5 days (days 1–5, p.o.), during the last week before culling, with either vehicle; RD+1W Veh group] or GB1211 (30 mg/kg; RD + 1W 30 mg group); • Rabbits received a high fat diet (HFD) for 12 weeks (RD implemented with 0.5% cholesterol and 2.5% vegetable fat) and were treated for 5 days (days 1–5, p.o.), during the last week before culling, with either vehicle (HFD + 1W Veh group) or GB1211 (30 mg/kg; HFD + 1W 30 mg group).
TRIzol reagent (Life Technologies, Paisley, United Kingdom) and/or RNeasy Mini Kit (Qiagen, Hilden, Germany) were used to isolate total RNA from rabbit liver specimens. RNA concentration and quality were measured using a Nanodrop ND-1000 (Thermo Fisher Scientific) at 260 nm and 280 nm. The OD 260/280 absorbance ratios were between 2.0 and 2.1 for all samples, to confirm RNA integrity and purification. cDNA synthesis was carried out using the iScript™ cDNA Synthesis Kit (Bio-Rad Laboratories, Hercules, CA), with 100 ng of mRNA in 20 µL reaction volume in accordance with the following protocol: 5 min at 25°C, 20 min at 46°C and 5 min at 85°C, followed by refrigeration at 4°C.
Semi-quantitative real-time RT-PCR (qRT-PCR) amplification and detection was performed with SsoAdvanced™ universal SYBR® Supermix and a CFX96 Two-Color Real-Time PCR Detection System (both Bio-Rad Laboratories) with the following thermal cycler conditions: 40 cycles at 95°C for 15 s and 60°C for 1 min. Specific PCR primers for rabbit target genes were designed on sequences available at the National Center for Biotechnology Information GenBank (http://www.ncbi.nlm.nih.gov) or Ensemble Genome (http://www.ensembl.org).
The 18S ribosomal RNA subunit was quantified with a predeveloped assay (Hs99999901_s1, Life Technologies) and used as the housekeeping gene for the relative quantitation of the target genes based on the comparative threshold cycle (Ct) 2^−ΔΔCt method ([Livak and Schmittgen, 2001]), with some modifications. In detail, we used the vehicle control groups as the calibrator in each analysis, so that the calculations would provide the fold-change of the other groups relative to controls.

Q: Which “CD8 liver mRNA expression” value (HFD rabbits) does the source give for OC[C@H]1O[C@H](Sc2cncc(Br)c2)[C@H](O)[C@@H](n2cc(-c3cc(F)c(F)c(F)c3)nn2)[C@H]1O [selvigaltin] here?
A: 1.76 ± 0.20 fold-change vs. RD+1W Veh

Q: What about the “COL1A1 liver mRNA expression” value (HFD rabbits) of the same compound?
A: 20.12 ± 15.24 fold-change vs. RD+1W Veh

Q: What about the “COL3A1 liver mRNA expression” value (HFD rabbits) of the same compound?
A: 9.96 ± 7.51 fold-change vs. RD+1W Veh

Q: And the “COX-2 liver mRNA expression” value (HFD rabbits)?
A: 8.81 ± 10.30 fold-change vs. RD+1W Veh

Q: And the “EDN1 liver mRNA expression” value (HFD rabbits)?
A: 1.32 ± 0.21 fold-change vs. RD+1W Veh

Q: And the “EDNRA liver mRNA expression” value (HFD rabbits)?
A: 7.73 ± 5.69 fold-change vs. RD+1W Veh

Q: And the “EDNRB liver mRNA expression” value (HFD rabbits)?
A: 2.23 ± 0.95 fold-change vs. RD+1W Veh

Q: And the “FN1 liver mRNA expression” value (HFD rabbits)?
A: 0.98 ± 0.14 fold-change vs. RD+1W Veh

Q: And the “FOXP3 liver mRNA expression” value (HFD rabbits)?
A: 5.15 ± 2.78 fold-change vs. RD+1W Veh

Q: What about the “IGF-1 liver mRNA expression” value (HFD rabbits) of the same compound?
A: 0.34 ± 0.08 fold-change vs. RD+1W Veh

Q: And the “LGALS3 liver mRNA expression” value (HFD rabbits)?
A: 116.95 ± 77.56 fold-change vs. RD+1W Veh

Q: What about the “PAI-1 liver mRNA expression” value (HFD rabbits) of the same compound?
A: 14.10 ± 16.47 fold-change vs. RD+1W Veh

Q: And the “SNAI2 liver mRNA expression” value (HFD rabbits)?
A: 1.55 ± 0.26 fold-change vs. RD+1W Veh

Q: And the “TBET liver mRNA expression” value (HFD rabbits)?
A: 0.74 ± 0.14 fold-change vs. RD+1W Veh

Q: What about the “TGFβ1 liver mRNA expression” value (HFD rabbits) of the same compound?
A: 4.25 ± 2.06 fold-change vs. RD+1W Veh

Q: What about the “TGFβ3 liver mRNA expression” value (HFD rabbits) of the same compound?
A: 2.97 ± 1.96 fold-change vs. RD+1W Veh

Q: What about the “αSMA liver mRNA expression” value (HFD rabbits) of the same compound?
A: 5.77 ± 3.34 fold-change vs. RD+1W Veh

Q: And the “CD8 liver mRNA expression” value (RD rabbits)?
A: 1.14 ± 0.81 fold-change vs. RD+1W Veh

Q: What about the “COL1A1 liver mRNA expression” value (RD rabbits) of the same compound?
A: 0.82 ± 0.40 fold-change vs. RD+1W Veh

Q: What about the “COL3A1 liver mRNA expression” value (RD rabbits) of the same compound?
A: 0.47 ± 0.21 fold-change vs. RD+1W Veh

Q: What about the “COX-2 liver mRNA expression” value (RD rabbits) of the same compound?
A: 2.52 ± 1.59 fold-change vs. RD+1W Veh

Q: What about the “EDN1 liver mRNA expression” value (RD rabbits) of the same compound?
A: 0.91 ± 0.20 fold-change vs. RD+1W Veh

Q: What about the “EDNRA liver mRNA expression” value (RD rabbits) of the same compound?
A: 0.89 ± 0.29 fold-change vs. RD+1W Veh

Q: What about the “EDNRB liver mRNA expression” value (RD rabbits) of the same compound?
A: 0.79 ± 0.19 fold-change vs. RD+1W Veh

Q: And the “FN1 liver mRNA expression” value (RD rabbits)?
A: 1.05 ± 0.12 fold-change vs. RD+1W Veh

Q: What about the “FOXP3 liver mRNA expression” value (RD rabbits) of the same compound?
A: 0.86 ± 0.12 fold-change vs. RD+1W Veh

Q: What about the “IGF-1 liver mRNA expression” value (RD rabbits) of the same compound?
A: 1.01 ± 0.19 fold-change vs. RD+1W Veh

Q: And the “LGALS3 liver mRNA expression” value (RD rabbits)?
A: 1.27 ± 1.04 fold-change vs. RD+1W Veh

Q: What about the “PAI-1 liver mRNA expression” value (RD rabbits) of the same compound?
A: 2.63 ± 1.79 fold-change vs. RD+1W Veh

Q: What about the “SNAI2 liver mRNA expression” value (RD rabbits) of the same compound?
A: 1.01 ± 0.31 fold-change vs. RD+1W Veh

Q: And the “TBET liver mRNA expression” value (RD rabbits)?
A: 0.75 ± 0.20 fold-change vs. RD+1W Veh

Q: And the “TGFβ1 liver mRNA expression” value (RD rabbits)?
A: 0.95 ± 0.31 fold-change vs. RD+1W Veh

Q: What about the “TGFβ3 liver mRNA expression” value (RD rabbits) of the same compound?
A: 0.70 ± 0.08 fold-change vs. RD+1W Veh

Q: What about the “αSMA liver mRNA expression” value (RD rabbits) of the same compound?
A: 0.96 ± 0.59 fold-change vs. RD+1W Veh
